Source: patent publication US20060004029A1, “Nitrogen-containing aromatic derivatives” (priority 2003, published 2006)

Assays:
VEGFR2 = target: T1, VEGFR2 (Homo sapiens, UniProt P35968); assay: Inhibition against receptor tyrosine kinase activity (HTRF), VEGFR2; assay type: biochemical; conditions: His6-VEGFR2 cytoplasmic domain, biotin-poly(GT), HTRF; read-out: VEGFR2 kinase IC50
T1 construct: coding for the cytoplasmic domain, beginning with lysine 791 and including the termination codon; made in house; host or cells: Sf9 insect cells, baculovirus (pFastBacHis)
T1 sequence (P35968 786-1356 limits assumed): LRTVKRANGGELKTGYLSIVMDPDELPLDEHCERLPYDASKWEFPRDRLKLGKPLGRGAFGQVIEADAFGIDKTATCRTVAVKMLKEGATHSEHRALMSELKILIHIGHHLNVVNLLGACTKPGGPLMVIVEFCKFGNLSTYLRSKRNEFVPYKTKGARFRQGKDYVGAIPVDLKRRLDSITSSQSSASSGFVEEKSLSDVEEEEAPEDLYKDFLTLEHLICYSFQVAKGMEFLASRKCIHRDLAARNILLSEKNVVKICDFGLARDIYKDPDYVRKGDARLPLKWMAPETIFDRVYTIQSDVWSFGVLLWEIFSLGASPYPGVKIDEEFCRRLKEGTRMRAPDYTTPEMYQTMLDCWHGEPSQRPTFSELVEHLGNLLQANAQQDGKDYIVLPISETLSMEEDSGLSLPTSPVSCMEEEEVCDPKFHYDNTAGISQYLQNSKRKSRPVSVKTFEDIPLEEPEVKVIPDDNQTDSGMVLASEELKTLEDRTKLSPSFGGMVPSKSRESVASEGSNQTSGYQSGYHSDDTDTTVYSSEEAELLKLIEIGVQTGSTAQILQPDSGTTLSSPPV
Procedure: This assay is used to determine inhibition of a test substance on tyrosine kinase activity. […] Expression in an appropriate expression system can produce a polypeptide with tyrosine kinase activity. […] The recombinant construct was transfected into insect cells (Spondoptea frugiperda9 (Sf9)) to prepare a recombinant Baculovirus.
For expression of the VEGFR2 tyrosine kinase, Sf9 cells were infected with the VEGFR2 recombinant virus and collected after 48 hours. The collected cells were rinsed with ice-cooled phosphate buffered saline (PBS) and then resuspended using 20 ml of ice-cooled Lysis Buffer (50 mM Tris-HCl (pH 8.5), 5 mM 2-mercaptoethanol, 100 mM KCl, 1 mM phenylmethylsulfonyl fluoride, 1% (v/v) NP-40) per 1.5×10^8 cells. The suspension was centrifuged at 12,000 rpm for 30 minutes at 4° C. and the supernatant was obtained. The supernatant was added to a Ni-NTA agarose column (3 ml, purchased from Qiagen) equilibrated with Buffer A {20 mM Tris-HCl (pH 8.5), 5 mM 2-mercaptoethanol, 500 mM KCl, 20 mM imidazole, 10% (v/v) glycerol}. The column was washed with 30 ml of Buffer A, and then with 6 ml of Buffer B {20 mM Tris-HCl (pH 8.5), 5 mM 2-mercaptoethanol, 1M KCl, 10% (v/v) glycerol}, and finally with 6 ml of Buffer A. After washing, it was eluted with 6 ml of Buffer C {20 mM Tris-HCl (pH 8.5), 5 mM 2-mercaptoethanol, 100 mM KCl, 100 mM imidazole, 10% (v/v) glycerol}. The eluate was placed on a dialysis membrane (purchased from Spectrum Laboratories) and dialyzed with a dialysis buffer {20 mM Tris-HCl (pH 7.5), 10% (v/v) glycerol, 1 mM dithiothreitol, 0.1 mM Na3VO4, 0.1 mM EGTA}. […] Using the same method for the cytoplasmic domains of FGFR1, PDGFRβ and HGFR yielded respective recombinant proteins fused with 6 histidine residues at the N-terminal (His6-FGFR1, His6-PDGFRβ or His6-HGFR).
The tyrosine kinase reaction was conducted as follows. […] Next, 10 μl of 4 μM ATP (diluted with distilled water) was added prior to incubation at 30° C. for 10 minutes, and then 10 μl of 500 mM EDTA (pH 8.0) was added.
The tyrosine phosphorylation rate for the biotin-poly(GT) was expressed as the delta F % value as described in the HTRF Standard Experiment Methods text by CIS Diagnostics Co. The delta F % value in the presence of the test substance was determined as a ratio (%) with the delta F % value with addition of His6-VEGFR2 in the absence of the test substance defined as 100% and the delta F % value in the absence of both the test substance and His6-VEGFR2 defined as 0%.

[1] = tested on: KP-1/VEGF human pancreatic cancer cells; assay: In vivo angiogenesis-inducing activity using mouse dorsal air sac model; conditions: oral, once a day, C57BL/6N female mice, 4th day
Procedure: PCR was conducted using a human placenta cDNA library (Toyobo Co., Ltd.) as the template and the SEQ ID NO:1 (5′[…]3′) and SEQ ID NO:2 (5′[…]3′) of VEGF as primers. After completion of the PCR reaction, the 5′ ends were phosphorylated and an approximately 600 bp DNA band was separated by 1.2% agarose gel electrophoresis. After polymerization by self-ligation, the cDNA was cut with EcoRI and BamHI and inserted into the EcoRI and BamHI sites of vector pUC19. This was used to transform E. coli JM83, and plasmids were recovered from the transformed clones. A VEGF cDNA fragment was cut out of the plasmids with HindIII and EcoRI and then inserted into pIRES2-rsGFP vector to yield pIRES2-rsGFP/VEGF for protein expression.
After overnight culturing of KP-1 human pancreatic cancer cells (3×10^6 cells) with 10% FCS-containing RPMI 1640 medium, an Effectene Transfection Reagent Kit (Qiagen) was used for introduction of 3 μg of pIRES2-rsGFP/VEGF into the KP-1 cells. After culturing in 10% FCS-containing RPMI 1640 medium containing 600 μg/ml of Geneticin, drug-resistant cells were selected. Furthermore, GFP high-expressing cells were collected by cell sorter (Becton Dickinson) as VEGF high-expressing KP-1 cells (KP-1/VEGF).
The KP-1/VEGF cells were prepared to 5×10^5 cells/ml, and 0.5 ml thereof was dispensed into each well of a 24-well plate and cultured at 37° C. for 24 hours. The culture supernatants were collected and the VEGF levels thereof measured using a VEGF measuring kit (IBL Co., Ltd.) for confirmation of high expression.
Millipore rings (Nihon Millipore) were sealed with 0.45 μm Durapore filter membranes (Nihon Millipore) to create chambers. KP-1/VEGF human pancreatic cancer cells (3×10^6) suspended in 0.17 ml of collagen gel were injected into each chamber through the injection port, and the chambers were sealed. Approximately 10 ml of air was then injected in the dorsal skin of 6-week-old C57BL/6N female mice under anesthesia to produce pouches, and the prepared chambers were transplanted therein. About 6 hours after completing transplantation, a test substance suspended in 0.5% methyl cellulose was orally administered (0.1 ml/10 g body weight), and this was continued once a day for the next 4 days.
On the 4th day after transplanting the chambers, 0.2 ml of ^51Cr (Amersham Pharmacia)-labeled mouse erythrocytes (2.5×10^6 cpm/ml) were injected through the caudal veins of each of the mice with the transplanted chambers. After a prescribed period, the skin in contact with the chamber was excised and frozen, the section in direct contact with the chamber was precisely cut off, and the radioactivity was measured with a Y-counter. The blood volume was calculated from the radioactivity and used as an index of the in vivo angiogenesis-inducing activity. The angiogenesis volume was recorded as this measured blood volume minus the blood volume obtained with transplantation of a chamber containing only collagen gel. The experiment was conducted using 10 mice in the control (solvent-administered) group and 5 mice in each compound-administered group.

CNC(=O)n1ccc2cc(Oc3ccnc(NC(=O)N4CCC(O)CC4)c3)ccc21 [Example 39, N1-Methyl-5-(2-((4-hydroxypiperidino)carbonyl)amino-4-pyridyl)oxy-1H-1-indolecarboxamide]
IC50 (VEGFR2): 4.5 nM

CNC(=O)n1ccc2cc(Oc3ccnc(NC(=O)N4CCC(C)(O)CC4)c3)ccc21 [Example 41, 5-(2-(((4-Hydroxy-4-methylpiperidin-1-yl)carbonyl)amino)pyridin-4-yloxy)-1H-1-indole-1-carboxylic acid methylamide]
IC50 (VEGFR2): 6.1 nM

CNC(=O)n1ccc2cc(Oc3ccnc(NC(=O)N4CCC(N5CCCC5)CC4)c3)ccc21 [Example 46, N1-Methyl-5-(2-(((4-(pyrrolidin-1-yl)piperidin-1-yl)carbonyl)amino)pyridin-4-yloxy)-1H-1-indolecarboxamide]
proportion of the angiogenesis amount after administering test substance to that of control ([1]; 30 mg/kg/day): 59.9% | proportion of the angiogenesis amount after administering test substance to that of control ([1]; 100 mg/kg/day): 43.7% | IC50 (VEGFR2): 32 nM

CNC(=O)n1ccc2cc(Oc3ccnc(NC(=O)N4CCC(N5CCCCC5)CC4)c3)ccc21 [Example 47, N1-Methyl-5-(2-(((4-(piperidin-1-yl)piperidin-1-yl)carbonyl)amino)pyridin-4-yloxy)-1H-1-indolecarboxamide]
proportion of the angiogenesis amount after administering test substance to that of control ([1]; 30 mg/kg/day): 87.4% | proportion of the angiogenesis amount after administering test substance to that of control ([1]; 100 mg/kg/day): 39.5% | IC50 (VEGFR2): 40 nM

CNC(=O)n1ccc2cc(Oc3ccnc(NC(=O)N4CCOCC4)c3)ccc21 [Example 53, N4-(4-(1-(Methylamino)carbonyl-1H-5-indolyl)oxy-2-pyridyl)-4-morpholinecarboxamide]
proportion of the angiogenesis amount after administering test substance to that of control ([1]; 30 mg/kg/day): 43.3% | proportion of the angiogenesis amount after administering test substance to that of control ([1]; 100 mg/kg/day): 44.4% | IC50 (VEGFR2): 3.8 nM
